Molecules are shown by their SMILES.

The test system of the experiment is HEK293T cells carrying the ATF4 luciferase reporter. In words: ATF4-Luc assay, in vitro model of Vanishing Cell White Matter Disease (VWMD). The class given is cell-based. As to conditions: Homo sapiens, HEK-293T, 1 μg/mL tunicamycin, 7 hours, One Glo luminescence. On the procedure:
In order to test exemplary compounds of the invention in a cellular context, a stable VWMD cell line was first constructed. The ATF4 reporter was prepared by fusing the human full-length ATF4 5′-UTR (NCBI Accession No. BC022088.2) in front of the firefly luciferase (FLuc) coding sequence lacking the initiator methionine as described in Sidrauski et al (eLife 2013). The construct was used to produce recombinant retroviruses using standard methods and the resulting viral supernatant was used to transduce HEK293T cells, which were then subsequently selected with puromycin to generate a stable cell line.
HEK293T cells carrying the ATF4 luciferase reporter were plated on polylysine coated 384-well plates (Greiner Bio-one) at 30,000 cells per well. Cells were treated the next day with 1 μg/mL tunicamycin and 200 nM of a compound of Formula (I) for 7 hours. Luminescence was measured using One Glo (Promega) as specified by the manufacturer. Cells were maintained in DMEM with L-glutamine supplemented with 10% heat-inactivated FBS (Gibco) and Antibiotic-Antimycotic solution (Gibco).
Table 2 below summarizes the EC50 data obtained using the ATF4-Luc assay for exemplary compounds of the invention.
By EC50 is commonly meant the midpoint of the concentration-response curve. With `O=C(COc1ccc2c(c1)OC(F)(F)O2)NC12CC(NC(=O)c3ccc(OC(F)(F)F)nc3)(C1)C2` [Compound 379, N-(3-{2-[(2,2-difluoro-2H-1,3-benzodioxol-5-yl)oxy]acetamido}bicyclo[1.1.1]pentan-1-yl)-6-(trifluoromethoxy)pyridine-3-carboxamide], the EC50 is 50 to 250 nM.
To `Cc1nc(C)c(C(=O)NC23CC(NC(=O)COc4ccc(Cl)c(F)c4)(C2)C3)o1` [Compound 847, N-{3-[2-(4-chloro-3-fluorophenoxy)acetamido]bicyclo[1.1.1]pentan-1-yl}-2,4-dimethyl-1,3-oxazole-5-carboxamide] belongs 250 to 1000 nM; to `Cc1cnc(C(=O)NC23CC(NC(=O)COc4ccc(Cl)c(F)c4)(C2)C3)cn1` [Compound 114, N-{3-[2-(4-chloro-3-fluorophenoxy)acetamido]bicyclo[1.1.1]pentan-1-yl}-5-methylpyrazine-2-carboxamide], 50 to 250 nM; to `O=C(COc1ccc(Cl)c(F)c1)NC12CCC(NC(=O)c3ccccc3F)(CC1)C[C@@H]2O` [Compound 560, N-{(3S)-4-[2-(4-chloro-3-fluorophenoxy)acetamido]-3-hydroxybicyclo[2.2.2]octan-1-yl}-2-fluorobenzamide], 50 to 250 nM.
With `O=C(COc1ccc(Cl)c(F)c1)NC12CC(NC(=O)c3sccc3F)(C1)C2` [Compound 796, N-{3-[2-(4-chloro-3-fluorophenoxy)acetamido]bicyclo[1.1.1]pentan-1-yl}-3-fluorothiophene-2-carboxamide], the EC50 was greater than 2000 nM.
The value for `O=C(COc1ccc(Cl)c(F)c1)NC12CC(NC(=O)c3ccc(/C=C/C4CC4)cn3)(C1)C2` [Compound 283, N-{3-[2-(4-chloro-3-fluorophenoxy)acetamido]bicyclo[1.1.1]pentan-1-yl}-5-[(E)-2-cyclopropylethenyl]pyridine-2-carboxamide] was less than 50 nM; that for `COCn1ccc(C(=O)NC23CC(NC(=O)COc4ccc(Cl)c(F)c4)(C2)C3)n1` [Compound 260, N-{3-[2-(4-chloro-3-fluorophenoxy)acetamido]bicyclo[1.1.1]pentan-1-yl}-1-(methoxymethyl)-1H-pyrazole-3-carboxamide] was 250 to 1000 nM.
For `Cc1nn(C)c(C(=O)NC23CC(NC(=O)COc4ccc(Cl)c(Cl)c4)(C2)C3)c1F` [Compound 500, N-{3-[2-(3,4-dichlorophenoxy)acetamido]bicyclo[1.1.1]pentan-1-yl}-4-fluoro-1,3-dimethyl-1H-pyrazole-5-carboxamide], the concentration for a half-maximal effect (EC50) was less than 50 nM.
With `CCc1cc(C(=O)NC23CCC(NC(=O)COc4ccc(Cl)c(F)c4)(CC2)[C@@H](O)C3)no1` [Compound 668, N-{(3S)-4-[2-(4-chloro-3-fluorophenoxy)acetamido]-3-hydroxybicyclo[2.2.2]octan-1-yl}-5-ethyl-1,2-oxazole-3-carboxamide], the EC50 was less than 50 nM.
For `Cc1cc(C(=O)NC23CCC(NC(=O)COc4ccc(Cl)c(F)c4)(CC2)C(O)C3)nn1C` (centres unmarked) [Compound 468, N-{4-[2-(4-chloro-3-fluorophenoxy)acetamido]-3-hydroxybicyclo[2.2.2]octan-1-yl}-1,5-dimethyl-1H-pyrazole-3-carboxamide], the EC50 was in the range of 250 to 1000 nM.
The value for `O=C(COc1ccc(Cl)c(F)c1)NC12CC(Nc3nnc(-c4ccc(Cl)cc4)o3)(C1)C2` [Compound 421, 2-(4-chloro-3-fluorophenoxy)-N-(3-{[5-(4-chlorophenyl)-1,3,4-oxadiazol-2-yl]amino}bicyclo[1.1.1]pentan-1-yl)acetamide] was 250 to 1000 nM.
The value for `Cc1cc2c(NC34CC(NC(=O)COc5cccc(OC(F)F)c5)(C3)C4)nccn2n1` [Compound 439, 2-[3-(difluoromethoxy)phenoxy]-N-{3-[(2-methylpyrazolo[1,5-a]pyrazin-4-yl)amino]bicyclo[1.1.1]pentan-1-yl}acetamide] was greater than 2000 nM; that for `O=C(COc1ccc(Cl)c(F)c1)NC12CC(NC(=O)c3cccc(-n4cnnc4)c3)(C1)C2` [Compound 902, N-{3-[2-(4-chloro-3-fluorophenoxy)acetamido]bicyclo[1.1.1]pentan-1-yl}-3-(4H-1,2,4-triazol-4-yl)benzamide] was greater than 2000 nM; that for `COc1cscc1C(=O)NC12CC(NC(=O)COc3ccc(Cl)c(F)c3)(C1)C2` [Compound 557, N-{3-[2-(4-chloro-3-fluorophenoxy)acetamido]bicyclo[1.1.1]pentan-1-yl}-4-methoxythiophene-3-carboxamide] was greater than 2000 nM.
`O=C(COc1ccc(Cl)c(F)c1)NC12CCC(NC(=O)c3cnc(C(F)(F)F)s3)(C1)C2` [Compound 647, N-{4-[2-(4-chloro-3-fluorophenoxy)acetamido]bicyclo[2.1.1]hexan-1-yl}-2-(trifluoromethyl)-1,3-thiazole-5-carboxamide]: the EC50 fell in the range of 250 to 1000 nM.
To `CN(CC1CCC1)c1cnc(C(=O)NC23CC(NC(=O)COc4ccc(Cl)c(F)c4)(C2)C3)cn1` [Compound 420, N-{3-[2-(4-chloro-3-fluorophenoxy)acetamido]bicyclo[1.1.1]pentan-1-yl}-5-[(cyclobutylmethyl)(methyl)amino]pyrazine-2-carboxamide] belongs greater than 2000 nM.
For `O=C(COc1ccc(Cl)c(Cl)c1)NC12CC(NC(=O)c3ccc(OCCO)nc3)(C1)C2` [Compound 158, N-{3-[2-(3,4-dichlorophenoxy)acetamido]bicyclo[1.1.1]pentan-1-yl}-6-(2-hydroxyethoxy)pyridine-3-carboxamide], the EC50 lay within 250 to 1000 nM.
As for `Cc1ccn2c(=O)c(C(=O)NC34CC(NC(=O)COc5ccc(Cl)c(F)c5)(C3)C4)cnc2c1` [Compound 314, N-{3-[2-(4-chloro-3-fluorophenoxy)acetamido]bicyclo[1.1.1]pentan-1-yl}-8-methyl-4-oxo-4H-pyrido[1,2-a]pyrimidine-3-carboxamide], the EC50 is greater than 2000 nM.
Turning to `Cc1ccc(C(=O)NC23CC(NC(=O)COc4ccc(Cl)c(Cl)c4)(C2)C3)c(C)n1` [Compound 687, N-{3-[2-(3,4-dichlorophenoxy)acetamido]bicyclo[1.1.1]pentan-1-yl}-2,6-dimethylpyridine-3-carboxamide], the EC50 was in the range of 250 to 1000 nM.
Regarding `O=C(COc1ccc(Cl)c(F)c1)NC12CC(NC(=O)c3ccc(C4=CCOCC4)nc3)(C1)C2` [Compound 155, N-{3-[2-(4-chloro-3-fluorophenoxy)acetamido]bicyclo[1.1.1]pentan-1-yl}-6-(3,6-dihydro-2H-pyran-4-yl)pyridine-3-carboxamide], the EC50 lay in the range of 1000 to 2000 nM.
With `O=C(COc1ccc(Cl)c(F)c1)NC12CC(NC(=O)c3ccc[nH]3)(C1)C2` [Compound 307, N-{3-[2-(4-chloro-3-fluorophenoxy)acetamido]bicyclo[1.1.1]pentan-1-yl}-1H-pyrrole-2-carboxamide], the EC50 is 250 to 1000 nM.
As to `COCc1cncc(C(=O)NC23CC(NC(=O)COc4ccc(Cl)c(Cl)c4)(C2)C3)c1` [Compound 569, N-{3-[2-(3,4-dichlorophenoxy)acetamido]bicyclo[1.1.1]pentan-1-yl}-5-(methoxymethyl)pyridine-3-carboxamide], the EC50 was less than 50 nM.
Regarding `O=C(COc1ccc(Cl)c(F)c1)NC12CCC(NC(=O)c3ccno3)(CC1)CC2O` (centres unmarked) [Compound 628, N-{4-[2-(4-chloro-3-fluorophenoxy)acetamido]-3-hydroxybicyclo[2.2.2]octan-1-yl}-1,2-oxazole-5-carboxamide], the EC50 was 250 to 1000 nM.
On to `O=C(COc1ccc2c(c1)OC(F)(F)O2)NC12CC(NC(=O)c3ccc(OC(F)F)nc3)(C1)C2` [Compound 458, N-(3-{2-[(2,2-difluoro-2H-1,3-benzodioxol-5-yl)oxy]acetamido}bicyclo[1.1.1]pentan-1-yl)-6-(difluoromethoxy)pyridine-3-carboxamide], for which the EC50 lay within 50 to 250 nM.
For the molecule `Cc1cc(C(=O)NC23CCC(NC(=O)COc4ccc(Cl)c(F)c4)(CC2)[C@@H](O)C3)sn1` [Compound 679, N-{(3S)-4-[2-(4-chloro-3-fluorophenoxy)acetamido]-3-hydroxybicyclo[2.2.2]octan-1-yl}-3-methyl-1,2-thiazole-5-carboxamide], the EC50 is less than 50 nM.
To `O=C(COc1ccc(Cl)c(F)c1)NC12CC(NC(=O)c3onc4c3CCCC4)(C1)C2` [Compound 854, N-{3-[2-(4-chloro-3-fluorophenoxy)acetamido]bicyclo[1.1.1]pentan-1-yl}-4,5,6,7-tetrahydro-2,1-benzoxazole-3-carboxamide] belongs greater than 2000 nM.
The value for `O=C(COc1ccc(Cl)c(F)c1)NC12CC(NC(=O)c3cc4nccnc4s3)(C1)C2` [Compound 886, N-{3-[2-(4-chloro-3-fluorophenoxy)acetamido]bicyclo[1.1.1]pentan-1-yl}thieno[2,3-b]pyrazine-6-carboxamide] was 250 to 1000 nM; that for `O=C(COc1ccc(Cl)c(Cl)c1)NC12CC(NC(=O)c3cnc(C(F)F)cn3)(C1)C2` [Compound 201, N-{3-[2-(3,4-dichlorophenoxy)acetamido]bicyclo[1.1.1]pentan-1-yl}-5-(difluoromethyl)pyrazine-2-carboxamide] was less than 50 nM; that for `O=C(COc1ccc(Cl)c(F)c1)NC12CC(Nc3cncc(C(F)(F)F)n3)(C1)C2` [Compound 747, 2-(4-chloro-3-fluorophenoxy)-N-(3-{[6-(trifluoromethyl)pyrazin-2-yl]amino}bicyclo[1.1.1]pentan-1-yl)acetamide] was greater than 2000 nM.

Values taken from patent publication US10913727B2, “Modulators of the integrated stress pathway” (Calico Life Sciences LLC, priority 2016, dated 2021).
